Our source for the IC50 values is patent US9670204B2, “Compounds and pharmaceutical compositions thereof for the treatment of inflammatory disorders” (Galapagos NV, priority 2013, dated 2017).

The IC50 is the concentration that gives 50% inhibition.

Where only a bound is given, the exact number is not on record here.

Test [1] addresses T1, hENPP2 (UniProtKB/SwissProt Q13822) (Homo sapiens (Human), UniProt Q13822). Kind of test: hENPP2 biochemical assay, LPC as substrate. The conditions noted are these: LPC (palmitoyl 16:0) as substrate. Summed up: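 Human ENPP2 in 50 mM Tris-HCl pH 8.5, 500 mM NaCl, 5 mM KCl, 10 mM CaCl2, 0.1% fatty-acid-free BSA, reacted 30 min at 37 °C with LPC 16:0 (150 µM solution added 1:1). Released choline measured via choline oxidase/peroxidase/TOOS/4-aminoantipyrine quinoneimine dye at 555 nm; IC50 reported.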

The target of test [2] is T1, hENPP2. Kind of test: fluorescent hENPP2 biochemical assay, FS-3 as substrate. The conditions noted are these: read-out: FS3-IC50. Summed up:
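IC50 values come from fluorescence gained as FS-3 is hydrolysed (ex 485, em 520 nm). The reaction, started by adding 0.75 μM FS-3 solution, runs 30 min at 30° C after a 30 min room-temperature preincubation of compound with enzyme. Buffer: Tris-HCl pH 8.0 with NaCl, KCl, MgCl2, CaCl2 and 0.1% BSA.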

In test [3] the test system is LPA 18:2 in rat plasma. Kind of test: Rat whole blood (plasma) LPA assay. The test is classed as biochemical. The conditions noted are these: 2 h at 37 C, LPA 18:2 by LC-MS/MS. The method, then:
Whole blood is collected from rats or mouse by exsanguinations on sodium heparin tube, then after centrifugation at 3000 rpm for 15 min at 4° C., plasma is stored at −80° C. Compounds are diluted in DMSO in concentration dependent manner then 0.5 μL are dispensed into 96-well plate placed in ice. Plasma is defrosted on ice then 49.5 μL of plasma are added into the well containing 0.5 μL of compound (1% DMSO final). Plates are covered with a lid in polypropylene and incubated at +37° C., 5% CO2, for 2 h under gentle shaking (except controls which are stored at −20° C.).
At the end of the incubation, controls are defrosted in ice and transferred in the incubated plates for LC-MS/MS analysis with a non GLP-validated method. For the analysis, plasma proteins from a 10 μL incubated plates are precipitated with an excess of methanol containing the internal standard, LPA 17:0. After centrifugation, the corresponding supernatant is injected on a C18 column. Analytes are eluted out of the column under isocratic conditions. An API5500 QTRAP mass spectrometer (ABSciex™) is used for the detection of LPA 18:2. No calibration curve is prepared for LPA 18:2, however relative quantities are evaluated based on the peak area.

`CCc1nc2ccc(C3CCN(CC(=O)N4CC(O)C4)CC3)cn2c1N(C)c1nc(-c2ccc(F)cc2C#N)ns1` [Compound 173, 2-(5-((2-ethyl-6-(1-(2-(3-hydroxyazetidin-1-yl)-2-oxoethyl)piperidin-4-yl)imidazo[1,2-a]pyridin-3-yl)(methyl)amino)-1,2,4-thiadiazol-3-yl)-5-fluorobenzonitrile]: the values for the IC50 in test [1], in test [2] and in test [3] were 0.01 to 100 nM, 0.01 to 100 nM and 100 to 500 nM, respectively.
`CCc1nc2ccc(N3CCOC3=O)cn2c1N(C)c1nc(-c2ccc(Cl)cc2)cs1` [Compound 206, 3-(3-((4-(4-chlorophenyl)thiazol-2-yl)(methyl)amino)-2-ethylimidazo[1,2-a]pyridin-6-yl)oxazolidin-2-one]: the IC50 in test [1] is above 1000 nM; in test [2], 0.01 to 100 nM; in test [3] it was above 1000 nM.
Regarding `CCc1nc2ccc(N3CCN(S(C)(=O)=O)CC3)cn2c1N(C)c1nc(-c2ccc(F)cc2)cs1` [Compound 54, N-(2-ethyl-6-(4-(methylsulfonyl)piperazin-1-yl)imidazo [1,2-a]pyridin-3-yl)-4-(4-fluorophenyl)-N-methylthiazol-2-amine], the IC50 in test [1] is 500 to 1000 nM; in test [2] it was 0.01 to 100 nM; in test [3], above 1000 nM.
On the same counts, the results for `CCc1nc2ccc(C3CCN(CC(=O)N4CC[C@H](O)C4)CC3)cn2c1N(C)c1nc(-c2ccc(F)cc2)c(C#N)s1` [Compound 143, (S)-2-((2-ethyl-6-(1-(2-(3-hydroxypyrrolidin-1-yl)-2-oxoethyl)piperidin-4-yl)imidazo[1,2-a]pyridin-3-yl)(methyl)amino)-4-(4-fluorophenyl)thiazole-5-carbonitrile] are 0.01 to 100 nM, 0.01 to 100 nM and 0.01 to 100 nM.
Taken in the same sequence, the figures for `CCc1nc2ccc(N3CCS(=O)(=O)CC3)cn2c1N(C)c1nc(-c2ccc(F)cc2)cs1` [Compound 182, 4-(2-ethyl-3-((4-(4-fluorophenyl)thiazol-2-yl)(methyl)amino)imidazo[1,2-a]pyridin-6-yl)-thiomorpholine 1,1-dioxide] were above 1000 nM, 0.01 to 100 nM and above 1000 nM.
Taken in the same sequence, the figures for `CCc1nc2ccc(N3CCN(C(=O)C4CCCN4)CC3)cn2c1N(C)c1nc(-c2ccc(F)cc2)cs1` (stereo not drawn) [Compound 46, (4-(2-ethyl-3-((4-(4-fluorophenyl)thiazol-2-yl)(methyl)amino)imidazo[1,2-a]pyridin-6-yl)piperazin-1-yl)(pyrrolidin-2-yl)methanone] were above 1000 nM, 0.01 to 100 nM and above 1000 nM.
Regarding `CCc1nc2ccc(C3CCN(S(=O)(=O)CCCN4CCOCC4)CC3)cn2c1N(C)c1nc(-c2ccc(F)cc2)cs1` [Compound 88, N-(2-ethyl-6-(1-(3-morpholinopropyl-sulfonyl)piperidin-4-yl)imidazo[1,2-a]pyridin-3-yl)-4-(4-fluorophenyl)-N-methylthiazol-2-amine], the IC50 is 100 to 500 nM in test [1], 0.01 to 100 nM in test [2] and 100 to 500 nM in test [3].
In the case of `CCc1nc2ccc(C3CCN(S(=O)(=O)CCCN(C)C)CC3)cn2c1N(C)c1nc(-c2ccc(F)cc2)cs1` [Compound 87, N-(6-(1-(3-(dimethylamino)propyl-sulfonyl)piperidin-4-yl)-2-ethylimidazo[1,2-a]pyridin-3-yl)-4-(4-fluorophenyl)-N-methylthiazol-2-amine], the IC50 in test [1] is 100 to 500 nM; in test [2], 0.01 to 100 nM; in test [3], 100 to 500 nM.
On to `CCc1nc2c(C)cc(N3CCN(CC(=O)N4CC[C@@H](O)C4)CC3)cn2c1N(C)c1nc(-c2ccc(F)cc2)c(C#N)s1` [Compound 4, (R)-2-((2-ethyl-6-(4-(2-(3-hydroxypyrrolidin-1-yl)-2-oxoethyl)piperazin-1-yl)-8-methylimidazo[1,2-a]pyridin-3-yl)(methyl)amino)-4-(4-fluorophenyl)thiazole-5-carbonitrile], for which the IC50 in test [1] is 100 to 500 nM; in test [2], 0.01 to 100 nM; in test [3] it was 100 to 500 nM.
